The text below walks through data of patent US12466803B2 (priority 2021, dated 2025).

By IC50 is commonly meant the concentration needed to halve the response being measured.

The first test has as its system phospho (S293) BCKDHA in human skeletal myocytes. In words: Phospho BCKDHA Alpha Surefire Cell Assay. The test is classed as cell-based. As to conditions: 60 minutes with compound, geometric mean.
As to `COc1c(F)cc(Cl)c(-c2c(C(=O)O)sc3cc(F)ccc23)c1F` (atropisomer, axis not shown) [Example 15, 3-(6-Chloro-2,4-difluoro-3-methoxyphenyl)-6-fluoro-1-benzothiophene-2-carboxylic acid, ATROP-1], the IC50 is above 60000 nM.

Still in this test, the particulars now being: Homo sapiens, 1 h, 60 minutes with compound, geometric mean.
Consider `CC1CCc2c(cc(F)c(-c3c(C(=O)O)sc4cc(F)ccc34)c2F)O1` (stereo not shown) [Example 3, 3-(5,7-Difluoro-2-methyl-3,4-dihydro-2H-1-benzopyran-6-yl)-6-fluoro-1-benzothiophene-2-carboxylic acid], for which the IC50 was 1000 nM.
The same measure, in the same setting: to `COc1cccc(-c2c(C(=O)O)sc3cc(Cl)ccc23)c1F` [Example 30, 6-chloro-3-(2-fluoro-3-methoxyphenyl)-1-benzothiophene-2-carboxylic acid] belongs 2600 nM; to `O=C(O)c1sc2cc(F)ccc2c1-c1c(F)cc(F)cc1Cl` [Example 148, 3-(2-chloro-4,6-difluorophenyl)-6-fluoro-1-benzothiophene-2-carboxylic acid], 4000 nM; to `CC1CCc2c(ccc(-c3c(C(=O)O)sc4cc(F)ccc34)c2F)O1` (stereo not shown) [Example 76, 6-fluoro-3-(5-fluoro-2-methyl-3,4-dihydro-2H-1-benzopyran-6-yl)-1-benzothiophene-2-carboxylic acid], 3600 nM.
The same measure, in the same setting: the same measure for `COCc1c(F)c(F)cc(-c2c(C(=O)O)sc3cc(F)ccc23)c1F` [Example 53, 6-fluoro-3-[2,4,5-trifluoro-3-(methoxymethyl)phenyl]-1-benzothiophene-2-carboxylic acid]: 4200 nM; for `O=C(O)c1sc2cc(F)ccc2c1-c1c(F)ccc(Cl)c1F` [Example 97, 3-(3-chloro-2,6-difluorophenyl)-6-fluoro-1-benzothiophene-2-carboxylic acid]: 540 nM; for `COc1c(Cl)ccc(-c2c(C(=O)O)sc3cc(Cl)ccc23)c1F` [Example 138, 6-chloro-3-(4-chloro-2-fluoro-3-methoxyphenyl)-1-benzothiophene-2-carboxylic acid]: 160 nM.
Still for that read-out and setting: to `O=C(O)c1sc2cc(F)ccc2c1-c1ccc2c(c1)CCCO2` [Example 28, 3-(3,4-dihydro-2H-1-benzopyran-6-yl)-6-fluoro-1-benzothiophene-2-carboxylic acid] belongs 4900 nM; to `O=C(O)c1sc2cc(F)ccc2c1-c1cc(Cl)c(Cl)cc1F` [Example 7, 3-(4,5-Dichloro-2-fluorophenyl)-6-fluoro-1-benzothiophene-2-carboxylic acid], 94 nM.
For the molecule `CCc1nccc(-c2c(C(=O)O)sc3cc(F)ccc23)c1F` [Example 112, 3-(2-ethyl-3-fluoropyridin-4-yl)-6-fluoro-1-benzothiophene-2-carboxylic acid], the IC50 was 2300 nM.
On the same count and under the same terms, to `Cc1cc(-c2c(C(=O)O)sc3cc(F)ccc23)c(F)cc1F` [Example 95, 3-(2,4-difluoro-5-methylphenyl)-6-fluoro-1-benzothiophene-2-carboxylic acid] belongs 1000 nM; to `COc1cc(-c2c(C(=O)O)sc3cc(F)ccc23)c(F)cc1Cl` [Example 36, 3-(4-chloro-2-fluoro-5-methoxyphenyl)-6-fluoro-1-benzothiophene-2-carboxylic acid], 3000 nM.
The same measure, in the same setting: the same measure for `O=C(O)c1sc2cc(F)ccc2c1-c1c(F)cc(Cl)cc1F` [Example 59, 3-(4-chloro-2,6-difluorophenyl)-6-fluoro-1-benzothiophene-2-carboxylic acid]: above 60000 nM.
The same measure, in the same setting: to `O=C(O)c1sc2cc(F)ccc2c1-c1cc(F)c(F)c(O)c1F` [Example 22, 6-Fluoro-3-(2,4,5-trifluoro-3-hydroxyphenyl)-1-benzothiophene-2-carboxylic acid] belongs 23000 nM; to `COc1c(Cl)ccc(-c2c(C(=O)O)sc3cc(F)ccc23)c1F` [Example 79, 3-(4-chloro-2-fluoro-3-methoxyphenyl)-6-fluoro-1-benzothiophene-2-carboxylic acid], 230 nM; to `O=C(O)c1sc2cc(Cl)ccc2c1-c1ccccc1` [Example 74, 6-chloro-3-phenyl-1-benzothiophene-2-carboxylic acid], above 60000 nM.
With `COc1ccc(-c2c(C(=O)O)sc3cc(F)ccc23)c(F)c1F` [Example 35, 3-(2,3-difluoro-4-methoxyphenyl)-6-fluoro-1-benzothiophene-2-carboxylic acid], the IC50 is above 60000 nM.
Same read-out and setting: to `COc1c(F)c(F)cc(-c2c(C(=O)O)oc3cc(F)ccc23)c1F` [Example 17, 6-Fluoro-3-(2,4,5-trifluoro-3-methoxyphenyl)-1-benzofuran-2-carboxylic acid] belongs 880 nM; to `COc1c(F)cc(F)c(-c2c(C(=O)O)sc3cc(F)ccc23)c1Cl` [Example 154, 3-(2-chloro-4,6-difluoro-3-methoxyphenyl)-6-fluoro-1-benzothiophene-2-carboxylic acid], 4200 nM.
Take `Cc1cc(-c2c(C(=O)O)sc3cc(Cl)ccc23)c(F)cc1F` [Example 137, 6-chloro-3-(2,4-difluoro-5-methylphenyl)-1-benzothiophene-2-carboxylic acid]: the IC50 was determined as 540 nM.
With `O=C(O)c1sc2cc(F)ccc2c1-c1ccc(F)c(F)c1F` [Example 19, 6-Fluoro-3-(2,3,4-trifluorophenyl)-1-benzothiophene-2-carboxylic acid], the IC50 turned out to be 4400 nM.
Same read-out and setting: to `CCc1c(F)c(F)cc(-c2c(C(=O)O)sc3cc(Cl)ccc23)c1F` [Example 134, 6-chloro-3-(3-ethyl-2,4,5-trifluorophenyl)-1-benzothiophene-2-carboxylic acid] belongs 80 nM; to `O=C(O)c1sc2cc(F)ccc2c1-c1c(F)cc(F)cc1F` [Example 60, 6-fluoro-3-(2,4,6-trifluorophenyl)-1-benzothiophene-2-carboxylic acid], 2900 nM.

The next test has as its system obese ZSF1 rats.
Experiment: not given
As to conditions: diet containing 1.36 g BT2/kg, after 4 additional weeks (8 weeks) of treatment; mean±SD.
In turn, `O=C(O)c1sc2cc(Cl)ccc2c1Cl` [BT2] displayed a kidney weights of 2.09 ± 0.1 g.

Staying with this test, now noted: diet containing 1.36 g BT2/kg, after 4 weeks of treatment; BCA assay; mean±SD.
Turning to `O=C(O)c1sc2cc(Cl)ccc2c1Cl` [BT2], the “urine protein normalized to creatinine” value was 55.4±7.2 mg protein/mg creatinine.

The same test, now with this note: diet containing 1.36 g BT2/kg, after 4 weeks of treatment; mean±SD.
As to `O=C(O)c1sc2cc(Cl)ccc2c1Cl` [BT2], the “urine produced in 5 hour urine collection” value was found to be 4.4 ± 2.7 mL.

The test is the same for the next values; noted with them: histology graded on a scale of 0-4, after 8 weeks of BT2 diet; mean±SD.
`O=C(O)c1sc2cc(Cl)ccc2c1Cl` [BT2] gave a diabetic nephropathy score of 2.9±0.8.
